Measured values published in patent US20250275993A1, “GLYCOSYLATION INHIBITORS AS THERAPEUTICS FOR STROKE” (The Regents of the University of California, priority 2022, published 2025).

How the values were obtained:
HUVEC = HUVEC proliferation assay; format: cell-based, human
Protocol: (§1) Proliferation assays with BCECs and BRECs were performed. Log-phase growing BCECs or BRECs (passage <10) were trypsinized, re-suspended and seeded in 96-well plates (no coating) in low-glucose DMEM supplemented with 10% bovine calf serum, 2 mM glutamine, and antibiotics (growth medium), at a density of 1200-1500 cells per well in 200 μl volume. All reagents were added at the indicated final concentrations. After 3-6 days, cells were incubated with AlamarBlue for 4 hrs. Fluorescence was measured at 530 nm excitation wavelength and 590 nm emission wavelength. The experiments were repeated at least three times. To create a hypoxic condition, cells were placed in a hypoxia incubator with a mixture of gas consisting of 1% O2, 5% CO2 and 94% N2. On each 96-well plate, untreated and VEGF-treated (10/ng/ml) wells were included to monitor plate-to-plate variations. 20% methanol or 0.05% DMSO served as negative controls. […] Human RMVECs and human adult DMVECs were split into Gelatin-coated 96 wells (2000 cells per well) in low glucose DMEM containing 10% FBS. 1200 cells/well was set up for proliferation assay in low glucose media containing 0.5% FBS. Data was collected at day 4 or 5. HUVEC (p7-10) were grown on gelatin-coated plate until it reached 70-80% confluency.
On the day of the assay, cells were dissociated with 0.05% trypsin, which was neutralized with 0.5% FBS-containing EBM. Cells were briefly spun and then re-suspended in 0.5% FBS-media. Cells were counted and plated in 96-well, 1000 cells/well. Triplicate wells were used for each treatment. Data were collected at day 3, and then cells were fixed in 4% paraformaldehyde for 15 min before adding crystal violet. Cell-covered areas were quantified after taking pictures by Image J software.

[1] = system: human retinal microvascular EC (hRMECs); assay: hRMEC proliferation assay; format: cell-based
Protocol: as §1

BCEC = BCEC transwell migration assay; format: cell-based, bovine; settings: ManN at 40 μM
Protocol: HUVECs (passage 6-8) were cultured and serum-starved as described in “Western Blots”. Ten thousand cells in […] of EBM-2 medium were then added to the upper chamber of […] pore size cell culture inserts (Falcon) coated with 0.1% gelatin. The lower compartment was filled with […] EBM-2 medium containing various agents. The plates were incubated at 37° C. to allow migration. After 4 hrs, cells were fixed with 4% PFA for 20 min and then stained with crystal violet (Sigma-Aldrich) for 20 min at RT. Migrated cells on the bottom side of the insert membrane were quantified by counting whole area of the insert at 40× magnification. The experiments were carried out in triplicate and repeated three times. BCEC migration was set up similarly, except that wells were coated with FN, cells were suspended in 1% serum media and migration time was 18-24 hrs.

human dermal fibroblasts = assay: Human dermal fibroblast proliferation assay; format: cell-based; settings: alone or in combination with growth factors
Protocol: Proliferation assays with fibroblasts were done in low-glucose DMEM containing 1% FBS, with or without 10 ng/ml bFGF, or 100 ng/ml human EGF and the assay was ended at day 3. ARPE-19 cells were gently lifted with 0.025% trypsin and plated in RtEGM media (Clonetics) containing 2% FBS, L-glutamine, human bFGF and GA-1000. Once cells were attached to plates, serum-free RtEGM media was used to maintain the cultures. For proliferation assays, 1500 human RPE cells were plated into 96-well plates in low-glucose DMEM containing 1% FBS. A673, U87MG, Calu6 and AML12 cells were grown until confluent and were then harvested and re-suspended in appropriate assay media. For proliferation assays, cells were plated at the density of 1000-2000 cells/well in low-glucose DMEM containing 5% FBS or otherwise stated. Bovine pituitary cells (pituitary folliculostellate cells) were isolated as previously described. For proliferation assays with human epidermal keratinocytes, human DMVECs and human dermal fibroblast cells, 1000 cells/well were plated in low-glucose DMEM containing 1% FBS with or without various growth factors. The assay was ended at day 3 for bovine pituitary cells and at day 4 for all the other cell types. […] Four days later, tumor cell growth was measured by the MTS assay (Promega, Madison, WI), a colorimetric assay that measures metabolic activity of viable cells. […]

[2] = mouse, in vivo, po
Protocol: Following oral administration, there was a relatively rapid decline in ManN plasma levels. Plasma free ManN levels reached a peak level of −100 nmol/ml plasma at 1 hr. […] 2 hours after oral feeding of 20% ManN, muscle samples were taken from the ischemic legs. A significant amount of ManN reached the ischemic legs, with 0.17+1−0.18 nmol/mg protein of free ManN and 0.91+1−0.24 nmol/mg protein of ManN-6p.
To test ManN stability in wound fluid collected from mice with skin infection as described below, 1.5 μl of 5% ManN solution was added to each 200 μl wound fluid which was first diluted 1:1 (v/v) with PBS. At each time point, samples were taken from 37° C. incubator and stored at −80° C. Plasma proteins were precipitated by adding ice cold acetonitrile to plasma: acetonitrile 1:3 (v/v) ratio. Samples were kept over ice for 1 hr and then centrifuged at 12000 g for 10 min at 7° C. to form a pellet. Supernatants were transferred to other tubed, dried down on a Speed Vac and then reconstituted in UltraPure distilled water and filtered through pre-washed Nanosep 3K Omega filters (Pall Corporation). The filtrate was dried down on Speed Vac. The dry samples were dissolved in 100 μl of water and 2 μl plasma or wound fluid sample was subjected to HPLC analysis. Neutral and amino sugars were separated on a Dionex CarboPac PAI column 4 mm×250 mm with 4 mm×50 mm guard column. An isocratic gradient of 19 mM sodium hydroxide with 0.95 mM sodium acetate was used at a flow rate of 1 ml/min with 20 min run. Data was collected using the Dionex ICS-3000 HPLC system with pulsed amperometric detector using standard Quad waveform. ManN was identified and quantified by comparison with monosaccharide standard using Thermo Scientific Chromeleon software. No ManN samples served as negative controls.

SMILES: N[C@H](C=O)[C@@H](O)[C@H](O)[C@H](O)CO [ManN, 2-Amino-2-deoxy-D-mannose]
- toxicity on HUVEC (HUVEC; 5 mM ManN): minimal toxicity
- HUVEC growth, ManN by itself (HUVEC; ManN alone): stimulated
- additivity with VEGF on HUVEC proliferation (HUVEC; with VEGF): dose-dependent additivity with VEGF
- toxicity on hRMECs ([1]; 5 mM ManN): minimal toxicity
- additivity with VEGF on hRMEC proliferation ([1]; with VEGF): dose-dependent additivity with VEGF
- additivity with VEGF in BCEC migration (BCEC): significant additivity with VEGF in promoting BCEC migration
- proliferation of human dermal fibroblasts (human dermal fibroblasts): no increases in proliferation
- plasma ManN after 3 hours relative to peak [2]: about half of that amount
- plasma free ManN peak level [2]: ~100 nmol/ml plasma
- time of plasma peak level [2]: 1 h
- ManN-6p in ischemic leg muscle ([2]; 2 h): 0.91+1−0.24 nmol/mg protein
- free ManN in ischemic leg muscle ([2]; 2 h): 0.17+1−0.18 nmol/mg protein
